Reference: article PMC12073679, “Drug Repurposing to Inhibit Oncostatin M in Crohn’s Disease” (Molecules, 2025)

Target: T1, recombinant human oncostatin M (Homo sapiens, UniProt P13725)
T1 construct: gene OSM; labelled with RED-NHS 2nd generation dye for MST
T1 sequence (P13725 26-221): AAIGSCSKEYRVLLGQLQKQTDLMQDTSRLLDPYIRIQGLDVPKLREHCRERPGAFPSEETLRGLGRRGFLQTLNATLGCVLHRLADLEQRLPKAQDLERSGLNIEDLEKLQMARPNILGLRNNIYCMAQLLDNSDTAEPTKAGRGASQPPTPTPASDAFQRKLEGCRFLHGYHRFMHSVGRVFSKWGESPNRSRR
Experiment: microscale thermophoresis
Assay type: binding

`CC1(C)[C@@H]2CC[C@@]1(CS(=O)(=O)O)C(=O)/C2=C/c1ccc(/C=C2/C(=O)[C@]3(CS(=O)(=O)O)CC[C@H]2C3(C)C)cc1` [1a, Ecamsule] showed a Kd of 11.4 ± 2.83 µM.
